Data reported in patent US5585367A (priority 1990, dated 1996).
In brackets after ≈: the same amount, converted by molar mass. Like-named read-outs stand apart in the source and are kept apart here.

Tests used:
clinical [1] = conditions: human, in vivo, po
Tat = Tat antagonism
clinical [2] = conditions: human, in vivo, po; remark: listed apart in the source
HIV-1 Wild G = experiment: Inhibition of HIV replication in PBL's; type: cell-based; conditions: Human immunodeficiency virus 1, Wild G (resistant to AZT, syncytium inducer)
HIV-1 Wild C = experiment: Inhibition of HIV replication in PBL's; type: cell-based; conditions: Human immunodeficiency virus 1
T4 lymphocytes [3] = experiment: Treatment of three patients presenting different stages of AIDS; type: in vivo, human; conditions: first patient (final phase), 1500 mgr a day, day 30; day 0: 24 cells
HIV-1 Wild B = experiment: Inhibition of HIV replication in PBL's; type: cell-based; conditions: Human immunodeficiency virus 1
HIV-1 [4] = type: cell-based
wild HIV-1 strains = experiment: Inhibition of HIV replication, wild HIV-1 strains; type: cell-based; conditions: for IC90: Human immunodeficiency virus 1, wild strains from patients
CD4 lymphocyte = experiment: Treatment of four patients with advanced AIDS, CD4 lymphocyte counts (FIG. 1); type: in vivo, human; conditions: all dosage regimens combined
Procedure: Four patients with advanced AIDS have been treated with ADA. One patient has been treated during two periods, i.e., treated was restarted after a return to baseline subsequent to the withdrawal of ADA. The patients received capsules containing 500 mg. The dosage regimen was 500 mg three times a day except during the second treatment period in the patient who is also the patient of Example 27 where the dosage regimen was increased to 1 gram three times a day. The graph represents the median value of all CD4 lymphocyte counts measured in the patients. All dosage regimens are combined. There were five periods of ADA treatment. Due to the small number of values, medians were calculated by carrying forward the last values of the patients with no data point in the corresponding treatment week. Values of patients who dropped out of the study were carried forward. The linear regression is represented by the equation Y=77.2 +4.8 X, where Y is the absolute CD4 […] and X is the number of weeks after start of ADA treatment. The correlation coefficient is 0.79.

HIV-1 Wild F = experiment: Inhibition of HIV replication in PBL's; type: cell-based; conditions: Human immunodeficiency virus 1, Wild F (resistant to AZT, syncytium inducer)
[5] = Single oral doses to healthy volunteers, tolerability and safety; type: in vivo, human
Procedure: Pharmaceutical grade ADA in gelatin capsules, each containing 500 mg, was administered as single oral doses to healthy volunteers to determine its tolerability and safety. […] These changes were reversible within 4-6 hours from intake.

[6] = single dose of 3 g, one volunteer
HIV-1 Wild A = experiment: Inhibition of HIV replication in PBL's; type: cell-based; conditions: Human immunodeficiency virus 1
HIV-1 Wild D = experiment: Inhibition of HIV replication in PBL's; type: cell-based; conditions: Human immunodeficiency virus 1
T4 lymphocytes [7] = experiment: Treatment of three patients presenting different stages of AIDS; type: in vivo, human
Procedure: (§1) Three sound volunteers were treated for 30 days with 1500 mgr a day of a azobisformamide in three portions of 500 mgr.
On the other handy three patients presenting different stages of AIDS were also treated with azobisformamide in the same dosages as he sound volunteers.
The first patient in final phase presented at least 30 T4 lymphocytes/mm^3, abundant diarrheas and a complete space-time disorientation.
The second patient in "ARC" phase presented a lymphocytar T4 population of 190/ mm^3, in constant decrease, as well as occasional diarrheas and anal herpes.

HIV-1 LAI/IIIB [8] = experiment: Inhibition of HIV replication in PBL's; type: cell-based; conditions: PBLs; 0.4 μgr/ml to 250.0 μgr/ml
[9] = Treatment of three sound volunteers for 30 days; type: in vivo, human; conditions: 1500 mgr a day (three portions of 500 mgr)
Procedure: as §1

HIV-1 [10] = type: cell-based; remark: listed apart in the source
[11] = oral
HIV-1 LAI/IIIB [12] = experiment: Inhibition of HIV replication in MT4 cells; type: cell-based
[13] = Tolerability and effectiveness of single doses; type: in vivo, human; conditions: single doses of between 7 and 140 mg per kg body weight
HIV-1 Wild E = experiment: Inhibition of HIV replication in PBL's; type: cell-based; conditions: Human immunodeficiency virus 1
[14] = B. L. OSER et al. (1965); cited from earlier work
HIV = experiment: In-vitro combination with didanosine; type: cell-based; conditions: at and below the IC50
[15] = single oral doses, one volunteer

Which results are given for `NC(=O)N=NC(N)=O` [ADA, 1,1'-azobisformamide]?
Tmax (clinical [1]): 1 to 1.5 h; Tat antagonism (Tat): not a Tat-antagonist; MTD (clinical [2]): 140 mg/kg; IC50 (HIV-1 Wild G): 11.2 µg/mL (≈ 96.5 µM); IC90 (HIV-1 Wild G): 21.2 µg/mL (≈ 183 µM); IC50 (HIV-1 Wild C): 11.1 µg/mL (≈ 95.6 µM); IC90 (HIV-1 Wild C): 18 µg/mL (≈ 155 µM); flu-like syndrome (140 mg/kg, from 6 hours after intake, lasted several hours): flu-like syndrome was observed; adverse effects such as changes in hemodynamic parameters or subjective well-being (lower doses (35 and 70 mg/kg)): No adverse effects; T4 lymphocytes (T4 lymphocytes [3]): 49 cells/mm^3; toxical effect on Supt-1 cells (Supt-1 cells): No toxical effect has been noted; IC50 (HIV-1 Wild B): 11.6 µg/mL (≈ 99.9 µM); IC90 (HIV-1 Wild B): 18.6 µg/mL (≈ 160 µM); protection of cellular cultures against the infectious power of HIV-1 (HIV-1 [4]): protects the cellular cultures against the infectious power of HIV-1; IC90 (wild HIV-1 strains; read-out: IC90 range): 17.4 to 21.2 µg/mL (≈ 150 to 183 µM); IC90 (wild HIV-1 strains; read-out: median IC90 (complete inhibition, ≥90% inhibition)): 18 µg/mL (≈ 155 µM); inhibition of the replication of wild HIV-1 strains (wild HIV-1 strains; PBLs, including strains phenotypically resistant to AZT, 0.4 to 250.0 μgr/ml): inhibit the replication; correlation coefficient of the CD4 regression (CD4 lymphocyte): 0.79; IC50 (HIV-1 Wild F): 6.4 µg/mL (≈ 55.1 µM); IC90 (HIV-1 Wild F): 19 µg/mL (≈ 164 µM); adverse effects on hematological and chemical parameters in blood and urine ([5]; 40 mg/kg or 60 mg/kg): No adverse effects were observed; adverse effects on blood pressure, pulse, or respiratory rate ([5]; any of the tested dosages): No adverse effects were observed; glutathione in peripheral blood ([5]; from doses of 40 mg/kg): slightly depressed; methemoglobin reduces [reductase] in peripheral blood ([5]; from doses of 40 mg/kg): slightly depressed; reversibility of the changes, time from intake ([5]; from doses of 40 mg/kg): 4 to 6 h; tolerability ([5]; single oral dosages of up to 60 mg per kg body weight): well tolerated; methemoglobin [5, 15]: dose-related increase in methemoglobin; return of methemoglobin to normal [5, 15]: within half an hour; time of methemoglobin Cmax after intake [5, 15]: 1 to 1.5 h; absorption and excretion [6]: can be absorbed and even excreted in its active form; IC50 (HIV-1 Wild A): 8.9 µg/mL (≈ 76.7 µM); IC90 (HIV-1 Wild A): 17.4 µg/mL (≈ 150 µM); IC50 (HIV-1 Wild D): 10 µg/mL (≈ 86.1 µM); IC90 (HIV-1 Wild D): 18.1 µg/mL (≈ 156 µM); coherent talking (T4 lymphocytes [7]; first patient, day 30): recovered their possibility of coherent talking; diarrhea (T4 lymphocytes [7]; first patient, day 30): the diarrhea has ended; walking autonomy (T4 lymphocytes [7]; first patient, day 30): limited walking autonomy; lymphocytes presenting the T4 receptor (T4 lymphocytes [7]; first patient, day 30, day 0: 5%): 9%; lymphocytes, % of white corpuscules (T4 lymphocytes [7]; first patient, day 30, day 0: 17%): 20%; white corpuscules (T4 lymphocytes [7]; first patient, day 30, day 0: 1850): 2600; improvement of T4 lymphocytes (T4 lymphocytes [7]; first patient, day 30 vs day 0): 100%; T4 lymphocytes (T4 lymphocytes [7]; second patient ("ARC" phase), day 30, before: 190): 280 T4 lymphocytes/ mm^3; diarrhea and anal herpes (T4 lymphocytes [7]; second patient, day 30): the diarrhea had completely disappeared as well as the anal herpes; T4 lymphocytes (T4 lymphocytes [7]; third patient (sound seropositive), day 30, before: 350): 440 T4 lymphocytes/ mm^3; inhibition of the replication of HIV-1 (strain IIIB(LAI)) (HIV-1 LAI/IIIB [8]): inhibit the replication; hematological parameters [9]: remained perfectly normal; secondary effect [9]: No secondary effect was reported; cytopathogenic effect (HIV-1 [10]): No cytopathogenic effect has been observed; absorption [11]: absorbed via the gastro-intestinal route; distribution [11]: distributes readily to intracellular compartments; IC50 (HIV-1 LAI/IIIB [12]; Human immunodeficiency virus 1, IIIB, MT4, MT4 cells infected with HIV-1 strain LAI/IIIB, read-out: lowest observed IC50): 1.6 µg/mL (≈ 13.8 µM); inhibition of the replication of HIV-1 (HIV-1 LAI/IIIB [12]; MT4 cells, 0.4 μgr/ml to 250.0 μgr/ml): inhibits the replication; tolerability and effectiveness [13]: tolerable and effective; IC50 (HIV-1 Wild E): 8.3 µg/mL (≈ 71.5 µM); IC90 (HIV-1 Wild E): 18.4 µg/mL (≈ 159 µM); toxicity for the humans [14]: absence of toxicity; combination with didanosine (HIV): additive effects
